From US12304890B2, “R-type pyridyloxycarboxylic acid, salt and ester derivative thereof, and preparation method therefor, and herbicidal composition and application thereof” (Qingdao Kingagroot Chemical Compound Co., Ltd., priority 2018, dated 2025)

Tests used:
Format in all cases: in vivo
[1] = tested on: Digitaria sanguinalis; experiment: Post-emergence test experiment, Digitaria sanguinalis; details: 1000 g a.i./ha, 3 weeks in greenhouse, fresh weight inhibition
Procedure: (§1) The above described growth inhibition rate is fresh weight inhibition rate.
(§2) Post-emergence test experiment: Monocotyledonous and dicotyledonous weed seeds and main crop seeds (i. e. wheat, corn, rice, soybean, cotton, oilseed, millet and sorghum.) were put into a plastic pot loaded with soil. Then covered with 0.5-2 cm soil, the seeds were allowed to grow in good greenhouse environment. The test plants were treated at 2-3 leaf stage 2 weeks after sowing. The test compounds of the invention were dissolved with acetone respectively, then added with tween-80, and using 1.5 liters per hectare of an emulsible concentrate of methyl oleate as a synergist, and diluted by certain amount of water to certain concentration. The solution was sprayed to the plants with a sprayer. Then the plants were cultured for 3 weeks in the greenhouse, and the experiment result of weed controlling effect was listed in tables 4-5.

[2] = tested on: Monocotyledonous and dicotyledonous weed seeds and main crop seeds; experiment: Post-emergence test experiment, other weeds and crops (Table 4, 1000 g a.i./ha); details: 3 weeks in greenhouse, fresh weight inhibition
Method in brief: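 Weed and crop seeds (wheat, corn, rice, soybean, cotton, oilseed, millet, sorghum) sown in soil pots in a greenhouse and sprayed at 2-3 leaf stage, 2 weeks after sowing. Compound in acetone/tween-80 with methyl oleate concentrate (1.5 L/ha) as synergist. Effect recorded as fresh-weight growth inhibition rate.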

[3] = tested on: Echinochloa crusgalli; experiment: Post-emergence test experiment, Echinochloa crusgalli; details: for Activity level (growth inhibition rate), Echinochloa crusgalli: 1000 g a.i./ha, 3 weeks in greenhouse, fresh weight inhibition
Procedure: as §1, §2

CC(Oc1nc(F)c(Cl)c(N)c1Cl)C(=O)[S-].CC(Oc1nc(F)c(Cl)c(N)c1Cl)C(=O)[S-].[Ca+2] (stereo not drawn) [Compound 2-2]
Activity level (growth inhibition rate), Digitaria sanguinalis [1]: 5 (Level 5: the growth inhibition rate is greater than 85%)
Activity level (growth inhibition rate), Abutilon theophrasti Medic. [2]: 5 (Level 5: the growth inhibition rate is greater than 85%)
Activity level (growth inhibition rate), Galium aparine [2]: 5 (Level 5: the growth inhibition rate is greater than 85%)
Activity level (growth inhibition rate), Monochoria Vaginalis [2]: 5 (Level 5: the growth inhibition rate is greater than 85%)
Activity level (growth inhibition rate), Echinochloa crusgalli [3]: 5 (Level 5: the growth inhibition rate is greater than 85%)

CC(Oc1nc(F)c(Cl)c(N)c1Cl)C(=O)O.N (stereo not drawn) [Compound 2-3]
Activity level (growth inhibition rate), Digitaria sanguinalis [1]: 5 (Level 5: the growth inhibition rate is greater than 85%)
Activity level (growth inhibition rate), Abutilon theophrasti Medic. [2]: 5 (Level 5: the growth inhibition rate is greater than 85%)
Activity level (growth inhibition rate), Galium aparine [2]: 5 (Level 5: the growth inhibition rate is greater than 85%)
Activity level (growth inhibition rate), Monochoria Vaginalis [2]: 5 (Level 5: the growth inhibition rate is greater than 85%)
Activity level (growth inhibition rate), Echinochloa crusgalli [3]: 5 (Level 5: the growth inhibition rate is greater than 85%)

CC(Oc1nc(F)c(Cl)c(N)c1Cl)C(=O)[S-].C[N+](C)(C)C (stereo not drawn) [Compound 2-4]
Activity level (growth inhibition rate), Digitaria sanguinalis [1]: 5 (Level 5: the growth inhibition rate is greater than 85%)
Activity level (growth inhibition rate), Abutilon theophrasti Medic. [2]: 5 (Level 5: the growth inhibition rate is greater than 85%)
Activity level (growth inhibition rate), Galium aparine [2]: 5 (Level 5: the growth inhibition rate is greater than 85%)
Activity level (growth inhibition rate), Monochoria Vaginalis [2]: 5 (Level 5: the growth inhibition rate is greater than 85%)
Activity level (growth inhibition rate), Echinochloa crusgalli [3]: 5 (Level 5: the growth inhibition rate is greater than 85%)

CC(Oc1nc(F)c(Cl)c(N)c1Cl)C(=O)O.CNC (stereo not drawn) [Compound 2-7]
Activity level (growth inhibition rate), Digitaria sanguinalis [1]: 5 (Level 5: the growth inhibition rate is greater than 85%)
Activity level (growth inhibition rate), Abutilon theophrasti Medic. [2]: 5 (Level 5: the growth inhibition rate is greater than 85%)
Activity level (growth inhibition rate), Galium aparine [2]: 5 (Level 5: the growth inhibition rate is greater than 85%)
Activity level (growth inhibition rate), Monochoria Vaginalis [2]: 5 (Level 5: the growth inhibition rate is greater than 85%)
Activity level (growth inhibition rate), Echinochloa crusgalli [3]: 5 (Level 5: the growth inhibition rate is greater than 85%)

CC(Oc1nc(F)c(Cl)c(N)c1Cl)C(=O)O.CN(C)CCO (stereo not drawn) [Compound 2-14]
Activity level (growth inhibition rate), Digitaria sanguinalis [1]: 5 (Level 5: the growth inhibition rate is greater than 85%)
Activity level (growth inhibition rate), Abutilon theophrasti Medic. [2]: 5 (Level 5: the growth inhibition rate is greater than 85%)
Activity level (growth inhibition rate), Galium aparine [2]: 5 (Level 5: the growth inhibition rate is greater than 85%)
Activity level (growth inhibition rate), Monochoria Vaginalis [2]: 5 (Level 5: the growth inhibition rate is greater than 85%)
Activity level (growth inhibition rate), Echinochloa crusgalli [3]: 5 (Level 5: the growth inhibition rate is greater than 85%)

CC(N)CN.CC(Oc1nc(F)c(Cl)c(N)c1Cl)C(=O)S (stereo not drawn) [Compound 2-17]
Activity level (growth inhibition rate), Digitaria sanguinalis [1]: 5 (Level 5: the growth inhibition rate is greater than 85%)
Activity level (growth inhibition rate), Abutilon theophrasti Medic. [2]: 5 (Level 5: the growth inhibition rate is greater than 85%)
Activity level (growth inhibition rate), Galium aparine [2]: 5 (Level 5: the growth inhibition rate is greater than 85%)
Activity level (growth inhibition rate), Monochoria Vaginalis [2]: 5 (Level 5: the growth inhibition rate is greater than 85%)
Activity level (growth inhibition rate), Echinochloa crusgalli [3]: 5 (Level 5: the growth inhibition rate is greater than 85%)

CC(Oc1nc(F)c(Cl)c(N)c1Cl)C(=O)O.CCC(N)(CO)CO (stereo not drawn) [Compound 2-22]
Activity level (growth inhibition rate), Digitaria sanguinalis [1]: 5 (Level 5: the growth inhibition rate is greater than 85%)
Activity level (growth inhibition rate), Abutilon theophrasti Medic. [2]: 5 (Level 5: the growth inhibition rate is greater than 85%)
Activity level (growth inhibition rate), Galium aparine [2]: 5 (Level 5: the growth inhibition rate is greater than 85%)
Activity level (growth inhibition rate), Monochoria Vaginalis [2]: 5 (Level 5: the growth inhibition rate is greater than 85%)
Activity level (growth inhibition rate), Echinochloa crusgalli [3]: 5 (Level 5: the growth inhibition rate is greater than 85%)

C1COCCN1.CC(Oc1nc(F)c(Cl)c(N)c1Cl)C(=O)O (stereo not drawn) [Compound 2-24]
Activity level (growth inhibition rate), Digitaria sanguinalis [1]: 5 (Level 5: the growth inhibition rate is greater than 85%)
Activity level (growth inhibition rate), Abutilon theophrasti Medic. [2]: 5 (Level 5: the growth inhibition rate is greater than 85%)
Activity level (growth inhibition rate), Galium aparine [2]: 5 (Level 5: the growth inhibition rate is greater than 85%)
Activity level (growth inhibition rate), Monochoria Vaginalis [2]: 5 (Level 5: the growth inhibition rate is greater than 85%)
Activity level (growth inhibition rate), Echinochloa crusgalli [3]: 5 (Level 5: the growth inhibition rate is greater than 85%)

COC(=O)[C@@H](C)Oc1ncc(Cl)c(N)c1C [Compound 2-28]
Activity level (growth inhibition rate), Digitaria sanguinalis [1]: 5 (Level 5: the growth inhibition rate is greater than 85%)
Activity level (growth inhibition rate), Abutilon theophrasti Medic. [2]: 5 (Level 5: the growth inhibition rate is greater than 85%)
Activity level (growth inhibition rate), Galium aparine [2]: 5 (Level 5: the growth inhibition rate is greater than 85%)
Activity level (growth inhibition rate), Monochoria Vaginalis [2]: 5 (Level 5: the growth inhibition rate is greater than 85%)
Activity level (growth inhibition rate), Echinochloa crusgalli [3]: 5 (Level 5: the growth inhibition rate is greater than 85%)

COC(=O)[C@@H](C)Oc1nc(F)c(Cl)c(N)c1C [Compound 2-29]
Activity level (growth inhibition rate), Digitaria sanguinalis [1]: 5 (Level 5: the growth inhibition rate is greater than 85%)
Activity level (growth inhibition rate), Abutilon theophrasti Medic. [2]: 5 (Level 5: the growth inhibition rate is greater than 85%)
Activity level (growth inhibition rate), Galium aparine [2]: 5 (Level 5: the growth inhibition rate is greater than 85%)
Activity level (growth inhibition rate), Monochoria Vaginalis [2]: 5 (Level 5: the growth inhibition rate is greater than 85%)
Activity level (growth inhibition rate), Echinochloa crusgalli [3]: 5 (Level 5: the growth inhibition rate is greater than 85%)

COC(=O)[C@@H](C)Oc1nc(Cl)c(Cl)c(N)c1Cl [Compound 2-31]
Activity level (growth inhibition rate), Digitaria sanguinalis [1]: 5 (Level 5: the growth inhibition rate is greater than 85%)
Activity level (growth inhibition rate), Abutilon theophrasti Medic. [2]: 5 (Level 5: the growth inhibition rate is greater than 85%)
Activity level (growth inhibition rate), Galium aparine [2]: 5 (Level 5: the growth inhibition rate is greater than 85%)
Activity level (growth inhibition rate), Monochoria Vaginalis [2]: 5 (Level 5: the growth inhibition rate is greater than 85%)
Activity level (growth inhibition rate), Echinochloa crusgalli [3]: 5 (Level 5: the growth inhibition rate is greater than 85%)

COC(=O)[C@@H](C)Oc1nc(C)c(Cl)c(N)c1Cl [Compound 2-32]
Activity level (growth inhibition rate), Digitaria sanguinalis [1]: 5 (Level 5: the growth inhibition rate is greater than 85%)
Activity level (growth inhibition rate), Abutilon theophrasti Medic. [2]: 5 (Level 5: the growth inhibition rate is greater than 85%)
Activity level (growth inhibition rate), Galium aparine [2]: 5 (Level 5: the growth inhibition rate is greater than 85%)
Activity level (growth inhibition rate), Monochoria Vaginalis [2]: 5 (Level 5: the growth inhibition rate is greater than 85%)
Activity level (growth inhibition rate), Echinochloa crusgalli [3]: 5 (Level 5: the growth inhibition rate is greater than 85%)

COC(=O)[C@H](Oc1nc(F)c(Cl)c(N)c1Cl)c1[nH]ncc1F [Compound 2-68]
Activity level (growth inhibition rate), Abutilon theophrasti Medic. [2]: 5 (Level 5: the growth inhibition rate is greater than 85%)
Activity level (growth inhibition rate), Galium aparine [2]: 5 (Level 5: the growth inhibition rate is greater than 85%)
Activity level (growth inhibition rate), Monochoria Vaginalis [2]: 5 (Level 5: the growth inhibition rate is greater than 85%)

CC(C)OC(=O)[C@@H](C)Oc1nc(F)c(Cl)c(N)c1Cl [Compound 2-75]
Activity level (growth inhibition rate), Digitaria sanguinalis [1]: 5 (Level 5: the growth inhibition rate is greater than 85%)
Activity level (growth inhibition rate), Abutilon theophrasti Medic. [2]: 5 (Level 5: the growth inhibition rate is greater than 85%)
Activity level (growth inhibition rate), Galium aparine [2]: 5 (Level 5: the growth inhibition rate is greater than 85%)
Activity level (growth inhibition rate), Monochoria Vaginalis [2]: 5 (Level 5: the growth inhibition rate is greater than 85%)
Activity level (growth inhibition rate), Echinochloa crusgalli [3]: 5 (Level 5: the growth inhibition rate is greater than 85%)

CCOC(=O)C(Oc1nc(F)c(Cl)c(N)c1Cl)C1CC1 (stereo not drawn) [Compound 2-383]
Activity level (growth inhibition rate), Abutilon theophrasti Medic. [2]: 5 (Level 5: the growth inhibition rate is greater than 85%)
Activity level (growth inhibition rate), Galium aparine [2]: 5 (Level 5: the growth inhibition rate is greater than 85%)
Activity level (growth inhibition rate), Monochoria Vaginalis [2]: 5 (Level 5: the growth inhibition rate is greater than 85%)

CSC(=O)C(Oc1nc(F)c(Cl)c(N)c1Cl)c1ccccc1 (stereo not drawn) [Compound 2-385]
Activity level (growth inhibition rate), Abutilon theophrasti Medic. [2]: 5 (Level 5: the growth inhibition rate is greater than 85%)
Activity level (growth inhibition rate), Galium aparine [2]: 5 (Level 5: the growth inhibition rate is greater than 85%)
Activity level (growth inhibition rate), Monochoria Vaginalis [2]: 5 (Level 5: the growth inhibition rate is greater than 85%)

C[C@H](Oc1nc(F)c(Cl)c(N)c1Cl)C(=O)OCC1CCCO1 (stereo partly drawn) [reference compound]
inhibition at 200 g/ha ([3]; Echinochloa crus-galli, 504 h, 200 g a.i./ha, 3 weeks, weed resistant to ALS inhibitor and ACCe herbicides, read-out: Echinochloa crusgalli, activity level (growth inhibition rate)): 5 to 20%
